This is an account of results in paper PMC5234776, “Study of the Antimicrobial Activity of Tilapia Piscidin 3 (TP3) and TP4 and Their Effects on Immune Functions in Hybrid Tilapia (Oreochromis spp.)” (PLoS ONE, 2017).

Experiment [1] deals with V. vulnificus. The experiment is described as follows: Time-kill analysis. The experiment is classed as cell-based, Vibrio vulnificus. As to conditions: for eradication of bacteria: 60 minutes of exposure at 2×MIC, in words; for time after which V. vulnificus CFUs recovered: peptide at 1xMIC. As for the experimental part:
(§1) We determined the MICs of TP3, TP4, kanamycin, and ampicillin against V. vulnificus using a broth microdilution method in accordance with NCCLS guidelines. To measure the killing efficiencies of TP3 and TP4 against V. vulnificus, we prepared TP3 or TP4 solutions at MIC concentrations of 0.5×, 1×, and 2× and these solutions with equal volumes of V. vulnificus (1×10^6 CFU/ml) to each well of a 96-well plate. The plates were incubated at 28°C for 0, 60, 120, 180, 360, 540, 720, or 1440 minutes, and after the incubation period, 50 μL of each bacterial solution were plated on a TCBS plate to obtain viable cell counts. Broth grown in the absence of peptides was used as a negative control. The results were determined using triplicate independent experiments.

Experiment [2] has as its system V. vulnificus. The experiment is described as follows: Tilapia survival, re-challenge of co-treatment survivors with V. vulnificus. It is filed as in vivo, tilapia (Oreochromis spp.). As to conditions: survivors of 20 μg/fish co-treatment, followed seven days. The text has this:
(§2) We obtained tilapia (Oreochromis spp.) from a commercial aquaculture company. The fish body lengths were 4.0±0.6 cm, and body weights were 3.1±0.3 g. The tilapia were maintained in a 2000 liter indoor aquarium at the Marine Research Station, Ilan, Taiwan. To study the efficacy with which TP3 and TP4 protect tilapia against V. vulnificus, we injected the bacteria into the abdominal cavities (peritoneum) of the tilapia using a syringe (29 Gx1/2, Terumo Medical, Elkton, MD, USA); control tilapia were injected with PBS-buffered saline. For the first trial in each group, we used 15 tilapia: (a) group 1 was injected with V. vulnificus (2×10^5 CFU/fish) only; (b) group 2 was injected with PBS only; and (c) group 3 was injected with bacterial cells (2×10^5 CFU/fish) combined with a mixture containing both TP3 and TP4 peptides (at 0.1, 1, 10, or 20 μg/fish) that had been incubated for 60 minutes at 28°C. Next, at 168 hours after the first injection, the tilapia that survived the first co-treatment were again injected with V. vulnificus (2×10^5 CFU/fish). For this second challenge, we chose tilapia with similar body weights and ages that had not been previously treated with V. vulnificus, TP3 or TP4 for the V. vulnificus-only group (control group), and we recorded the survival rate over seven days. For the third trial, each group contained 15 tilapia, each of which was injected with 20, 30, or 40 μg of TP3 or TP4 followed by V. vulnificus (2×10^5 CFU/fish) after 0.5, 1, or 2 hours. The survival rate was recorded after seven days. For the fourth trial, each group contained 15 tilapia, each of which was first injected with V. vulnificus (2×10^5 CFU/fish) and then with 20, 30, or 40 μg of TP3 or TP4 after 0.5, 1, or 2 hours; the survival rate was recorded over seven days. Each experimental group consisted of 15 fish per treatment and three replicates (triplicate groups of 15 fish per treatment). We performed multiple group comparisons by analysis of variance (ANOVA) using SPSS software, and pairwise comparisons of groups were performed using a t-test. Significant differences were indicated as *P<0.05 and **P<0.01.
The antimicrobial activities of TP3 and TP4 peptides were analyzed in tilapia infected with lethal amounts of bacteria. Different amounts of V. vulnificus were injected into the abdominal cavities of the fish, and survival rates were recorded as cumulative percentages (S1 Fig). To determine whether TP3 and TP4 had any toxic effects on the tilapia, we injected different doses of TP3 and TP4 (0.1, 1, 10, 20, 30, 40, or 50 μg/fish) into the abdominal cavity and recorded the cumulative survival percentage of the fish (S2 Fig). We also co-treated tilapia with different doses (0.1, 1, 10, 20 μg/fish) of TP3 or TP4 combined with 2x10^4 CFU of V. vulnificus to evaluate tilapia survival following treatment. […] After 14, 21, or 28 days following the first co-treatment with TP3, the tilapia that survived in the 20 μg/fish TP3 experimental group were injected with a second dose of 2x10^4 CFU of V. vulnificus, and the survival rates were measured for another seven days. […] In the co-treatment experiments, at 14, 21, or 28 days after the first co-treatment with TP4, the surviving tilapia in the 20 μg/fish TP4 experimental group received a second injection of 2x10^4 CFU of V. vulnificus, and the survival rates were measured for another seven days.

Experiment [3] concerns V. vulnificus. Kind of experiment: Tilapia survival, peptide injected after V. vulnificus infection (post-treatment). The experiment is classed as in vivo, tilapia (Oreochromis spp.). The following applies: seven days.
Description: as §2

Experiment [4] has as its system V. vulnificus. Kind of experiment: microbe, parasite or virus in culture. It is filed as cell-based, Vibrio vulnificus. As to conditions: peptide treated from room temperature to as high as 100°C; 16 hours of incubation. As for the experimental part:
To understand the effects of pH on TP3 or TP4, the reagents were dissolved in ddH2O, 1 M HCl or 1 M NaOH to obtain solutions with different pH values. For the temperature-dependent functional study, the TP3 or TP4 was added to a solution in a water bath (Basic life, model BL3002, Taiwan) and incubated for 60 minutes at different temperatures (40, 60, 80, or 100°C). To evaluate the effects of TP3 and TP4 on pepsin and trypsin function, each peptide was incubated for 10 or 30 minutes with different concentrations of pepsin or trypsin (0.1, 1, or 10 μg/ml), […], according to a previously described MIC experimental protocol.

For experiment [5], the system named is V. vulnificus. The experiment is described as follows: Membrane perturbation, NPN uptake. It is filed as cell-based, Vibrio vulnificus. The following applies: 1×10^6 CFU/ml, 30 minutes, 40 μmol/L NPN; kanamycin: slight increase only. As for the experimental part: We used previously reported methods for the membrane perturbation assay. Briefly, a single colony of V. vulnificus was cultured in TSB medium for 480 minutes at 28°C, and the adjusted culture (1×10^6 CFU/ml) was aliquoted into different tubes with or without TP4 or TP3. After incubating the cells for 30 minutes, we added 40 μmol/L 1-N-phenylnaphthylamine (NPN) and continued to incubate the cells. Tubes containing PBS with NPN and bacterial cells with NPN served as controls. The NPN fluorescence intensity was detected using a fluorescence ELISA reader. All experiments were performed in triplicate, and the results are expressed as means with standard errors (SE).

For experiment [6], the system named is V. vulnificus. The experiment is described as follows: microbe, parasite or virus in culture. It is filed as cell-based, Vibrio vulnificus. As for the experimental part:
as §1
First, we determined the minimum MICs and minimum bactericidal concentrations (MBCs) of TP3 or TP4 against V. vulnificus.

The mark [7] stands for this setting: peptide 20 μg/fish 0.5 hours after V. vulnificus.
Where [8] appears, read: peptide 20 μg/fish 1 hour after V. vulnificus.
Setting [9] is: peptide 20 μg/fish 2 hours after V. vulnificus.
Setting [10] is: peptide 30 μg/fish 0.5 hours after V. vulnificus.
Setting [11] is: peptide 30 μg/fish 1 hour after V. vulnificus.
Setting [12] is: peptide 30 μg/fish 2 hours after V. vulnificus.
[13] abbreviates: peptide 40 μg/fish 0.5 hours after V. vulnificus.
The mark [14] stands for this setting: peptide 40 μg/fish 1 hour after V. vulnificus.
The mark [15] stands for this setting: peptide 40 μg/fish 2 hours after V. vulnificus.

In brackets after ≈: the same amount, converted by molar mass. Peptide text beside a SMILES is read from it.

Consider `CC[C@H](C)[C@H](NC(=O)[C@H](CC(C)C)NC(=O)[C@H](CO)NC(=O)[C@H](Cc1c[nH]cn1)NC(=O)[C@@H](NC(=O)[C@H](Cc1c[nH]cn1)NC(=O)[C@H](CCCCN)NC(=O)CNC(=O)[C@@H](NC(=O)[C@H](CO)NC(=O)[C@H](Cc1ccccc1)NC(=O)[C@H](CC(C)C)NC(=O)CNC(=O)CNC(=O)[C@@H](NC(=O)[C@@H](NC(=O)[C@H](Cc1c[nH]cn1)NC(=O)[C@H](Cc1c[nH]cn1)NC(=O)[C@@H](NC(=O)[C@@H](N)Cc1ccccc1)[C@@H](C)CC)[C@@H](C)CC)[C@@H](C)CC)C(C)C)[C@@H](C)CC)C(=O)N[C@@H](Cc1c[nH]cn1)C(=O)NCC(=O)N[C@@H](Cc1c[nH]cn1)C(=O)O` [TP3, tilapia piscidin 3] (H-FIHHIIGGLFSVGKHIHSLIHGH-OH), for which the eradication of bacteria entry in the experiment with V. vulnificus [1] was “completely eradicated”. In the experiment on V. vulnificus [1], the “time after which V. vulnificus CFUs recovered” value is on record as “approximately 6 hours”. In addition, the “survival rate after second injection of V. vulnificus” value with V. vulnificus [2] (re-challenged after 14 days) is given as 17.8%; in the experiment on V. vulnificus [2] (re-challenged after 21 days) it was 26.7%; with V. vulnificus [2] (re-challenged after 28 days), 35.6%. For the same molecule, the survival rate in the experiment on V. vulnificus [3] (setting [7]) was 33.3%; in the experiment on V. vulnificus [3] (setting [8]) it was 20%; in the experiment on V. vulnificus [3] (setting [9]) it was 0%; in the experiment with V. vulnificus [3] (setting [10]) it was 33.3%; in the experiment on V. vulnificus [3] (setting [11]) it was 15.5%; in the experiment with V. vulnificus [3] (setting [12]) it was 4.5%. In addition, the survival rate with V. vulnificus [3] (setting [13]) came to 24.4%; in the experiment on V. vulnificus [3] (setting [14]), 8.9%; in the experiment with V. vulnificus [3] (setting [15]), 0%. Besides, the “concentration sufficient to eliminate V. vulnificus” value in the experiment on V. vulnificus [4] was 250 µg/mL. In the experiment with V. vulnificus [5], the “concentration that increased NPN fluorescence” value amounted to 60 µg/mL. The molecule also displayed an MBC against V. vulnificus [6] of 62.5 µg/mL (≈ 24.4 µM).

On to `CC[C@H](C)[C@H](NC(=O)[C@H](C)NC(=O)[C@H](CCCCN)NC(=O)CNC(=O)[C@H](C)NC(=O)[C@H](CO)NC(=O)[C@H](Cc1ccccc1)NC(=O)[C@H](CC(C)C)NC(=O)CNC(=O)CNC(=O)[C@@H](NC(=O)[C@@H](NC(=O)[C@H](Cc1c[nH]cn1)NC(=O)[C@H](Cc1c[nH]cn1)NC(=O)[C@@H](NC(=O)[C@@H](N)Cc1ccccc1)[C@@H](C)CC)[C@@H](C)CC)[C@@H](C)CC)C(=O)N[C@@H](Cc1c[nH]cn1)C(=O)N[C@@H](CCCNC(=N)N)C(=O)N[C@@H](CC(C)C)C(=O)N[C@H](C(=O)N[C@@H](CCCNC(=N)N)C(=O)N[C@@H](CCCNC(=N)N)C(=O)N[C@@H](CCCNC(=N)N)C(=O)N[C@@H](CCCNC(=N)N)C(=O)N[C@@H](CCCNC(=N)N)C(=O)O)[C@@H](C)CC` [TP4, tilapia piscidin 4] (H-FIHHIIGGLFSAGKAIHRLIRRRRR-OH), for which, in the experiment on V. vulnificus [1], the eradication of bacteria result is on record as “completely eradicated”. Also, the “time after which V. vulnificus CFUs recovered” value in the experiment on V. vulnificus [1] was roughly 9 h. In addition, the “survival rate after second injection of V. vulnificus” value stood at 17.8% in the experiment with V. vulnificus [2] (re-challenged after 14 days), 37.8% with V. vulnificus [2] (re-challenged after 21 days) and 42.2% in the experiment on V. vulnificus [2] (re-challenged after 28 days). For the same molecule, the survival rate is given as 48.9% in the experiment on V. vulnificus [3] (setting [7]); 22.2% with V. vulnificus [3] (setting [8]); 4% in the experiment on V. vulnificus [3] (setting [9]); 40% with V. vulnificus [3] (setting [10]); 20% in the experiment with V. vulnificus [3] (setting [11]); 0% in the experiment on V. vulnificus [3] (setting [12]). The survival rate amounted to 2.2% in the experiment on V. vulnificus [3] (setting [13]), 4.4% in the experiment on V. vulnificus [3] (setting [14]) and 6.7% in the experiment with V. vulnificus [3] (setting [15]). Also, in the experiment on V. vulnificus [4], the “concentration sufficient to eliminate V. vulnificus” value came out at 31.2 µg/mL. The “concentration that increased NPN fluorescence” value in the experiment with V. vulnificus [5] was determined as 8 µg/mL. The same molecule came in with an MBC against V. vulnificus [6] of 7.8 µg/mL (≈ 2.62 µM).
